Laboratory results from patent US8791132B2, “Compounds and methods for treatment of hypertension” (Medivation Technologies, Inc., priority 2011, dated 2014).
Where “and” joins values, the source holds several entries; their conditions need not be identical. Equal entries are not always repeated.

Key:
[1] = target: T1, human recombinant adrenergic α2B receptor (Homo sapiens, UniProt P18089); experiment: Radioligand binding, adrenergic α2B ([3H]Rauwolscine); settings: for inhibition at 0.1 µM: read-out: Percentage inhibition of ligand binding, Adrenergic α2B (0.1 μM), compound at 0.1 μM; for inhibition at 0.03 µM: read-out: Percentage inhibition of ligand binding, Adrenergic α2B (0.03 μM), compound at 0.03 μM
T1 construct: expressed in transfected cells; host or cells: CHO-K1
T1 sequence (P18089 1-450): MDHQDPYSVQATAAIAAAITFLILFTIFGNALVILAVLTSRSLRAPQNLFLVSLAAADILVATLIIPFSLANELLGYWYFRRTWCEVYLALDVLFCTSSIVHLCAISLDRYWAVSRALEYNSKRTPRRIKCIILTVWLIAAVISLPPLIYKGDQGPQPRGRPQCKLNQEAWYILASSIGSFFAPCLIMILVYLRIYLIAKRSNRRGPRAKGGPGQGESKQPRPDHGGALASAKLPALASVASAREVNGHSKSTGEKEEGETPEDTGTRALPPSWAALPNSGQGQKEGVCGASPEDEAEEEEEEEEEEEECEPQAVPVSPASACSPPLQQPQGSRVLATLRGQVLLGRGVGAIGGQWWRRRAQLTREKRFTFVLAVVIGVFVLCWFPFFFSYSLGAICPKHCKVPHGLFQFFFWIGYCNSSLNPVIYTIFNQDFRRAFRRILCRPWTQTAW
Outline: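 Membranes from CHO-K1 cells expressing human recombinant α2B, in 50 mM Tris-HCl pH 7.4, 12.5 mM MgCl2, 1 mM EDTA, 0.2% BSA, incubated with compound and 2.5 nM [3H]Rauwolscine, 60 min, 25 °C.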

[2] = target: T2, human recombinant adrenergic α2A receptor (Homo sapiens, UniProt P08913); experiment: Radioligand binding, adrenergic α2A ([3H]MK-912); settings: for inhibition at 0.1 µM: read-out: Percentage inhibition of ligand binding, Adrenergic α2A (0.1 μM), compound at 0.1 μM; for inhibition at 0.03 µM: read-out: Percentage inhibition of ligand binding, Adrenergic α2A (0.03 μM), compound at 0.03 μM
T2 construct: expressed in transfected cells; host or cells: insect Sf9 cells
T2 sequence (P08913 1-465): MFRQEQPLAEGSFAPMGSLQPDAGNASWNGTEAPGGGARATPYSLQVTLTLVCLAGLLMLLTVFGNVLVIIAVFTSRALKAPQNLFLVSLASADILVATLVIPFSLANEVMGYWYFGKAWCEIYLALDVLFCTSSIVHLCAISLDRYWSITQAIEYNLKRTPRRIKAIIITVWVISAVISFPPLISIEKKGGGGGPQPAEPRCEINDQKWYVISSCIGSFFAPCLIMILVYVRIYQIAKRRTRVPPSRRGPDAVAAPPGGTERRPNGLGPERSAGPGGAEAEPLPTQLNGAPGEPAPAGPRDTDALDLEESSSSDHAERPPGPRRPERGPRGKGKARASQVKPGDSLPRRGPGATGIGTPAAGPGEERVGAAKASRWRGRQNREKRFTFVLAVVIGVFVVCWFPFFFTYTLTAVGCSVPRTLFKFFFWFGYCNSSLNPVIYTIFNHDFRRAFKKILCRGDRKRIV
Outline: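 Sf9-expressed receptor was incubated with compound for 60 min at 25 °C in modified Tris-HCl buffer, pH 7.4. Nonspecific binding was taken as that remaining with 10 μM WB-4101.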

[3] = target: T3, rat adrenergic α1B receptor (Rattus norvegicus, UniProt P15823); experiment: Radioligand binding, adrenergic α1B ([3H]Prazosin); settings: [3H]Prazosin, repeat datapoints each shown; for inhibition at 0.1 µM: read-out: Percentage inhibition of ligand binding, Adrenergic α1B (0.1 μM), compound at 0.1 μM; for inhibition at 0.03 µM: read-out: Percentage inhibition of ligand binding, Adrenergic α1B (0.03 μM), compound at 0.03 μM
T3 construct: rat adrenergic α1B receptor obtained from Wistar Rat liver; from tissue; host or cells: Wistar rat liver
T3 sequence (P15823 1-515): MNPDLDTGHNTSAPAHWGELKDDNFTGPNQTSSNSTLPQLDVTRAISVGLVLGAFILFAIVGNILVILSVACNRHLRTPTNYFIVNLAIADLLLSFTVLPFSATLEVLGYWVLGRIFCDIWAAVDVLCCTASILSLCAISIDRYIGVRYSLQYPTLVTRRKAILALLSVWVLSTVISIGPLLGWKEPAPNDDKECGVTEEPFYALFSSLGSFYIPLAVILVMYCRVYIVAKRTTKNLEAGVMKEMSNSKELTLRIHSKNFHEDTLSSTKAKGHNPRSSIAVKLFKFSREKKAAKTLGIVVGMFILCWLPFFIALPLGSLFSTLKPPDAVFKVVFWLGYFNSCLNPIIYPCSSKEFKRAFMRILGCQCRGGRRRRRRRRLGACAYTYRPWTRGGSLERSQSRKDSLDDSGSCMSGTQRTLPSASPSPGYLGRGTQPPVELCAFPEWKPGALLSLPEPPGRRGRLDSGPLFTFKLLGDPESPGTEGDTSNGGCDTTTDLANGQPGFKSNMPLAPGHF
Outline: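 Incubation ran 60 min at 25 °C in Tris-HCl buffer (50 mM, pH 7.4, 0.5 mM EDTA) with Wistar rat liver α1B receptor. 10 μM phentolamine set non-specific binding.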

[4] = target: T4, human recombinant adrenergic α1D receptor (Homo sapiens, UniProt P25100); experiment: Radioligand binding, adrenergic α1D ([3H]Prazosin); settings: [3H]Prazosin, repeat datapoints each shown; for inhibition at 0.1 µM: read-out: Percentage inhibition of ligand binding, Adrenergic α1D (0.1 μM), compound at 0.1 μM; for inhibition at 0.03 µM: read-out: Percentage inhibition of ligand binding, Adrenergic α1D (0.03 μM), compound at 0.03 μM
T4 construct: expressed in transfected cells; host or cells: HEK-293
T4 sequence (P25100 1-572): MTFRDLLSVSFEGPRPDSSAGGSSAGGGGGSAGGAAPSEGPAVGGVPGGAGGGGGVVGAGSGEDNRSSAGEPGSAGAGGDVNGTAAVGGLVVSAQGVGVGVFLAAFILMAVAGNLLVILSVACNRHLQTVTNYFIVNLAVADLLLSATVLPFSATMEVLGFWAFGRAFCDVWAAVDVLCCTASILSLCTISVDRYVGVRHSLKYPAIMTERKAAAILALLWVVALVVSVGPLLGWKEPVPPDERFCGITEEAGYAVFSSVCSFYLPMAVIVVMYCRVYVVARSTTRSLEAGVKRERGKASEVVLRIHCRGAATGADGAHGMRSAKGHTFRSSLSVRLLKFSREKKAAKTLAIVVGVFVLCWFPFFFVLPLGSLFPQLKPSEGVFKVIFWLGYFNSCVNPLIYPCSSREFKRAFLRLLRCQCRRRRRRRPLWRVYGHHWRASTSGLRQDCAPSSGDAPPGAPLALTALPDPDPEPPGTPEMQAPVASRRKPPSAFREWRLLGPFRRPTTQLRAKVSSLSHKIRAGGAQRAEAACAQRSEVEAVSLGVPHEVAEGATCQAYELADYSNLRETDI
Method: Compounds were incubated with 0.6 nM [3H]Prazosin for 60 min at 25° C. Non-specific binding was estimated in the presence of 10 μM phentolamine. Receptor proteins were filtered and washed, the filters were then counted to determine [3H]Prazosin specifically bound. […] Biochemical assay results are presented as the percent inhibition of specific binding in Table B1.

[5] = [3H]Rauwolscine, repeat datapoints each shown
[6] = [3H]MK-912, repeat datapoints each shown

Row | SMILES | inhibition at 0.1 µM [1, 5] | inhibition at 0.1 µM [2, 6] | inhibition at 0.1 µM [3] | inhibition at 0.1 µM [4] | inhibition at 0.03 µM [1, 5] | Ki [2] | inhibition at 0.03 µM [3] | inhibition at 0.03 µM [4] | Percentage inhibition of ligand binding, Adrenergic α2A (0.1 μM) ([2]; compound at 0.1 μM, [3H]MK-912, repeat datapoints each shown, 0.1 µM) | inhibition at 0.03 µM [2, 6] | Percentage inhibition of ligand binding, Adrenergic α2B (0.1 μM) ([1]; compound at 0.1 μM, [3H]Rauwolscine, repeat datapoints each shown, 0.1 µM) | Ki ([1]; read-out: Ki α2B)
1 | COCc1ccc(/C(C)=C/n2c3c(c4cc(C)ccc42)CN(C)CC3)cn1 [compound 126] | 82% | 12% | 30% | 46% | – | – | – | – | – | – | – | –
2 | Cc1ccc2c(c1)c1c(n2CCc2ccc(Cl)cc2)CCN(C)C1 [compound 184, 5-(4-Chlorophenethyl)-2,3,4,5-tetrahydro-2,8-dimethyl-1H-pyrido[4,3-b]indole] | – | 93% | – | – | 95% | 184 nM | 60% | 24% | – | – | – | –
3 | C/C(=C\n1c2c(c3cc(C)cc(C)c31)CN(C)CC2)c1ccc(C)nc1 [compound 188] | 105% | – | 60% | 48% | – | – | – | – | 66% and 90% | 35% | – | –
4 | C/C(=C\n1c2c(c3cc(C)ccc31)C1CCCN1CC2)c1ccc(C)nc1 (stereo not drawn) [compound 193, 10-methyl-7-(2-(6-methylpyridin-3-yl)prop-1-enyl)-2,3,5,6,7,11c-hexahydro-1H-indolizino[7,8-b]indole] | 103% | 77% | 93% | 88% | – | – | – | – | – | – | – | –
5 | Cc1ccc2c(c1)c1c(n2CCc2ccc(F)cc2)CCN(C)C1 [compound 206] | 102% | 86% | – | – | – | 1.12 nM and 6.79 nM | 46% | 42% | – | – | – | –
6 | CN1CCc2c(c3cc(Cl)ccc3n2CCc2ccccc2)C1 [compound 207] | 106% | 90% | – | – | – | 1.16 nM | 49% | 39% | – | – | – | –
7 | Cc1ccc(CCn2c3c(c4cc(Cl)ccc42)CN(C)CC3)cc1 [compound 208] | 97% | 101% | – | – | – | – | 60% | 41% | – | – | – | –
8 | CN1CCc2c(c3cc(Cl)ccc3n2CCc2ccc(Cl)cc2)C1 [compound 213] | – | 98% | – | – | 26% | – | 53% | 53% | – | – | 68% and 97% | 26.3 nM
9 | COc1ccc(CCn2c3c(c4cc(C)ccc42)CN(C)CC3)cc1 [compound 218] | – | – | – | – | 110% | – | 79% | 60% | – | 85% | – | –
10 | CN1CCc2c(n(CC(C)(O)c3ccc(F)cc3)c3ccc(Cl)cc23)CC1 (stereo not drawn) [compound 221] | 80% | 56% | 65% | 16% | – | – | – | – | – | – | – | –
11 | COc1ccc(/C(C)=C/n2c3c(c4cc(C)ccc42)CCN(C)CC3)c(F)c1 [compound 222] | 104% | 96% | 95% | 101% | – | – | – | – | – | – | – | –
12 | C/C(=C\n1c2c(c3cc(C)ccc31)CCN(C)C2)c1ccc(Cl)cc1 [compound 224] | 69% | 52% | 70% | 26% | – | – | – | – | – | – | – | –
13 | C/C(=C\n1c2c(c3cc(C)ccc31)C1CCC(C2)N1C)c1ccc(Cl)cc1Cl (stereo not drawn) [compound 225] | 80% | 75% | 27% | 12% | – | – | – | – | – | – | – | –
14 | C/C(=C/n1c2c(c3cc(C)ccc31)CCN(C)CC2)c1ccc(Cl)cc1Cl [compound 226] | 83% | 85% | 88% | 48% | – | – | – | – | – | – | – | –
15 | C/C(=C\n1c2c(c3cc(C)ccc31)CCN(C)CC2)c1ccc(Cl)cc1Cl [compound 227] | 98% | 66% | 21% | -2% | – | – | – | – | – | – | – | –
16 | C/C(=C/n1c2c(c3cc(Cl)ccc31)CCN(C)CC2)c1ccc(Cl)cc1Cl [compound 228] | 42% | 77% | 64% | 19% | – | – | – | – | – | – | – | –
17 | C/C(=C\n1c2c(c3cc(Cl)ccc31)CCN(C)CC2)c1ccc(Cl)cc1Cl [compound 229] | 90% | 53% | 17% | 8% | – | – | – | – | – | – | – | –
18 | C/C(=C/n1c2c(c3cc(C)ccc31)CCN(C)CC2)c1ccccc1F [compound 230] | 93% | 87% | 94% | 58% | – | – | – | – | – | – | – | –
19 | C/C(=C\n1c2c(c3cc(C)ccc31)C1CCC(C2)N1C)c1ccccc1F (stereo not drawn) [compound 231] | 87% | 65% | 48% | 26% | – | – | – | – | – | – | – | –
20 | C/C(=C\n1c2c(c3cc(C)ccc31)CCN(C)CC2)c1ccccc1F [compound 232] | 102% | 87% | 87% | 43% | – | – | – | – | – | – | – | –
21 | C/C(=C\n1c2c(c3cc(Cl)ccc31)CCN(C)CC2)c1ccccc1F [compound 233] | 103% | 80% | 73% | 28% | – | – | – | – | – | – | – | –
